Key:
4T1.2 cell line = assay: 2D cell line viability assay (cell confluence); assay type: cell-based, murine; conditions: Mus musculus, 4T1.2, 96 h
Description: (§1) FIGS. 4A-4E illustrate the effects of Compound 1 on the Potency of Paclitaxel in a 2D Cell Line Viability Assay. […] Data points indicate mean and Standard Deviation of 2 biological replicates. Graphs are representative of at least 2 independent experiments. […] Abbreviations: DMSO, dimethylsulfoxide.

EMT6 cell line = assay: 2D cell line viability assay (cell confluence); assay type: cell-based, murine; conditions: Mus musculus, EMT6, 96 h, 4 days
Description: as §1

[1] = tested on: LXFE690 organoid, NSCLC (squamous subtype); assay: 3D clonogenic assay in patient derived organoids; assay type: cell-based, human; conditions: for Combination activity 5 μM Compound 1 (cAUC % reduction): chemotherapy dose titration + 5 μM Compound 1 vs chemotherapy alone; for Combination activity 20 μM Compound 1 (cAUC % reduction): chemotherapy dose titration + 20 μM Compound 1 vs chemotherapy alone
Protocol: (§2) Five tumor cell lines (4T1.2, A549, EMT6, NCI-H460, and HT29) were treated with a range of paclitaxel or 5-FU concentrations in the presence of dimethlylsulfoxide (DMSO), 5 μM Compound 1, or 20 μM Compound 1. Cells were imaged 4 days after treatment and percent confluence was assessed by image quantification. EC50 values for cell confluence were used to assess chemotherapy potency. Eleven patient-derived tumor organoids (MAXFTN449, MAXFTN2990, PAXF1657, PAXF2131, CXF1256, CXF2129, CXF2061, LXFE2478, LXFE690, LXFA677, LXFA644) were seeded in a 3D matrix and treated with a range of paclitaxel, 5-FU, SN38, Gemcitabine, oxaliplatin, and carboplatin concentrations in the presence of DMSO, 5 μM Compound 1, or 20 μM Compound 1. After 8 to 13 days in culture, colonies were stained, imaged, and counted. A dose response curve was generated for chemotherapy alone or chemotherapy in combination with 5 or 20 μM Compound 1. Combination activity was defined as a percentage of the area under the chemotherapy dose response curve (cAUC) for Compound 1 combination groups compared to the cAUC of chemotherapy alone.
(§3) For combination experiments, working stock solutions of all compounds were prepared in DMSO at concentrations of 660-fold the highest test concentration used and stored at −20° C. Platin compounds were prepared freshly on each treatment day. On each day of an experiment, an aliquot of the working stock solutions was used and stored at room temperature prior to and during treatment. First, 1:2 dilutions of 660-fold concentrated working stocks were prepared in DMSO (in case of monotherapy controls), or equal amounts of the compound working stocks were mixed (in case of drug combinations). Then, different dilutions of these 330-fold concentrated solutions were prepared in DMSO to give an 8×2 matrix combination layout with conditions. The DMSO dilutions were further diluted […] into cell culture medium (IMDM, supplemented with 20% (v/v) fetal bovine serum, and 50 μg/mL gentamicin) in an intermediate dilution plate. Finally, 10 μL taken from the intermediate dilution plate were transferred to 140 μL of cells and medium per well of the final assay plate. Thus, the DMSO dilutions used for the mono- and the combination-treatment were diluted 1:660, and the DMSO concentration in the assay was […].
(§4) Tumors were passaged as subcutaneous xenografts in NMRI nu/nu mice. At a tumor volume of 400 to 1000 mm^3, tumor-bearing mice were euthanized, and tumors were collected under sterile conditions without delay. Tumors were mechanically disaggregated and subsequently incubated with an enzyme cocktail consisting of collagenase type IV (41 U/mL), DNase I (125 U/mL), hyaluronidase type III (100 U/mL), and dispase II (1 U/mL) in RPMI 1640 medium at 37° C. for 60 to 120 minutes. Cells were passed through sieves of 100 μm and 40 μm mesh size, and washed with RPMI 1640 medium. The percentage of viable cells was determined in a Neubauer-hemocytometer using trypan blue exclusion. Aliquots of the cells were frozen down and stored in liquid nitrogen vapor phase. On each day of an experiment, a frozen aliquot of tumor cells was thawed and used for preparation of assay plates.
(§5) The clonogenic assay was carried out in a 96 well plate format using ultra low attachment plates. For each test, plates were prepared as follows: each test well contained a layer of semi-solid medium with tumor cells (50 μL), and a second layer of medium supernatant with or without test compound (100 μL). The cell layer consisted of […] to 12.5×10^3 tumor cells per well, which were seeded in 50 μL/well cell culture medium (IMDM, supplemented with 20% (v/v) fetal bovine serum, 50 μg/mL gentamicin, and 0.4% (w/v) agar). After 24 hours, the soft-agar layer was covered with 90 μL of the same culture medium without agar, and 10 μL of control medium or test compound after serial dilution in DMSO for the duration of the experiment (continuous exposure, 100 μL drug overlay).

[2] = tested on: PAXF2131 organoid, Pancreatic cancer; assay: 3D clonogenic assay in patient derived organoids; assay type: cell-based, human; conditions: for Combination activity 20 μM Compound 1 (cAUC % reduction): chemotherapy dose titration + 20 μM Compound 1 vs chemotherapy alone
Protocol: as §2, §3, §4, §5

[3] = tested on: LXFE2478 organoid, NSCLC (squamous subtype); assay: 3D clonogenic assay in patient derived organoids; assay type: cell-based, human; conditions: for Combination activity 5 μM Compound 1 (cAUC % reduction): chemotherapy dose titration + 5 μM Compound 1 vs chemotherapy alone; for Combination activity 20 μM Compound 1 (cAUC % reduction): chemotherapy dose titration + 20 μM Compound 1 vs chemotherapy alone
Protocol: as §2, §3, §4, §5

[4] = tested on: PAXF1657 organoid, pancreatic cancer; assay: 3D clonogenic assay in patient derived organoids; assay type: cell-based, human; conditions: for Combination activity 20 μM Compound 1 (cAUC % reduction): chemotherapy dose titration + 20 μM Compound 1 vs chemotherapy alone
Protocol: as §2, §3, §4, §5

[5] = tested on: MAXFTN2990 organoid, breast cancer (triple negative); assay: 3D clonogenic assay in patient derived organoids; assay type: cell-based, human; conditions: for Combination activity 20 μM Compound 1 (cAUC % reduction): chemotherapy dose titration + 20 μM Compound 1 vs chemotherapy alone
Protocol: as §2, §3, §4, §5

[6] = tested on: MAXFTN449 organoid, breast cancer (triple negative); assay: 3D clonogenic assay in patient derived organoids; assay type: cell-based, human; conditions: for Combination activity 20 μM Compound 1 (cAUC % reduction): chemotherapy dose titration + 20 μM Compound 1 vs chemotherapy alone
Protocol: as §2, §3, §4, §5

A549 cell line = assay: 2D cell line viability assay (cell confluence); assay type: cell-based; conditions: Homo sapiens, A549, 96 h, 4 days
Description: as §1

HT29 cell line = assay: 2D cell line viability assay (cell confluence); assay type: cell-based; conditions: Homo sapiens, HT-29, 96 h, 4 days
Description: as §1

NCI-H460 cell line = assay: 2D cell line viability assay (cell confluence); assay type: cell-based; conditions: Homo sapiens, NCI-H460, 96 h, 4 days
Description: as §1

[7] = tested on: LXFA644 organoid, NSCLC (adenocarcinoma subtype); assay: 3D clonogenic assay in patient derived organoids; assay type: cell-based, human; conditions: for Combination activity 5 μM Compound 1 (cAUC % reduction): chemotherapy dose titration + 5 μM Compound 1 vs chemotherapy alone
Protocol: as §2, §3, §4, §5

[8] = tested on: LXFA677 organoid, NSCLC (adenocarcinoma subtype); assay: 3D clonogenic assay in patient derived organoids; assay type: cell-based, human
Protocol: as §2, §3, §4, §5

[9] = in the presence of 5 μM Compound 1
[10] = in the presence of 20 μM Compound 1
[11] = chemotherapy dose titration + 5 μM Compound 1 vs chemotherapy alone
[12] = chemotherapy dose titration + 20 μM Compound 1 vs chemotherapy alone

In the case of CC(=O)O[C@H]1C(=O)[C@@]2(C)[C@H]([C@H](OC(=O)c3ccccc3)[C@]3(O)C[C@H](OC(=O)[C@H](O)[C@@H](NC(=O)c4ccccc4)c4ccccc4)C(C)=C1C3(C)C)[C@]1(OC(C)=O)CO[C@@H]1C[C@@H]2O (relative stereo) [Paclitaxel, (1S,2S,3R,4S,7R,9S,10S,12R,15S)-4,12-diacetoxy-15-{[(2R,3S)-3-(benzoylamino)-2-hydroxy-3-phenylpropanoyl]oxy}-1,9-dihydroxy-10,14,17,17-tetramethyl-11-oxo-6-oxatetracyclo[11.3.1.0˜3,10˜0.0˜4,7˜]heptadec-13-en-2-yl rel-benzoate], the EC50 (4T1.2 cell line; 4 days after treatment, in the absence of Compound 1) is reported as 48 nM, the EC50 (4T1.2 cell line; 4 days, in the presence of 5 μM Compound 1) is reported as 16 nM and the EC50 (4T1.2 cell line; 4 days, in the presence of 20 μM Compound 1) is reported as 3.4 nM. The EC50 (EMT6 cell line; in the absence of Compound 1) was 19 nM, the EC50 (EMT6 cell line; [9]) was 5.5 nM and the EC50 (EMT6 cell line; [10]) was 1.9 nM. The “Combination activity 5 μM Compound 1 (cAUC % reduction)” value [1] was 87%, the “Combination activity 20 μM Compound 1 (cAUC % reduction)” value [1] was 94% and the “Combination activity 20 μM Compound 1 (cAUC % reduction)” value ([1]; listed as paclitaxel) was 94%. For the same molecule, the “Combination activity 5 μM Compound 1 (cAUC % reduction)” value [2, 11] was 58%, the “Combination activity 20 μM Compound 1 (cAUC % reduction)” value [2] was 71% and the “Combination activity 20 μM Compound 1 (cAUC % reduction)” value ([2]; listed as paclitaxel) was 71%. The “Combination activity 5 μM Compound 1 (cAUC % reduction)” value [3] was 46%, the “Combination activity 20 μM Compound 1 (cAUC % reduction)” value [3] was 45% and the “Combination activity 20 μM Compound 1 (cAUC % reduction)” value ([3]; listed as paclitaxel) was 45%. For the same molecule, the “Combination activity 5 μM Compound 1 (cAUC % reduction)” value [4, 11] was 50%, the “Combination activity 20 μM Compound 1 (cAUC % reduction)” value [4] was 64% and the “Combination activity 20 μM Compound 1 (cAUC % reduction)” value ([4]; listed as paclitaxel) was 64%. The “Combination activity 5 μM Compound 1 (cAUC % reduction)” value [5, 11] was 63%, the “Combination activity 20 μM Compound 1 (cAUC % reduction)” value [5] was 77% and the “Combination activity 20 μM Compound 1 (cAUC % reduction)” value ([5]; listed as paclitaxel) was 77%. For the same molecule, the “Combination activity 5 μM Compound 1 (cAUC % reduction)” value [6, 11] was 57%, the “Combination activity 20 μM Compound 1 (cAUC % reduction)” value [6] was 42% and the “Combination activity 20 μM Compound 1 (cAUC % reduction)” value ([6]; listed as paclitaxel) was 42%. For the same molecule, the EC50 (A549 cell line; in the absence of Compound 1) was 1.6 nM, the EC50 (A549 cell line; [9]) was 1.6 nM and the EC50 (A549 cell line; [10]) was 1 nM. The EC50 (HT29 cell line; in the absence of Compound 1) was 1.8 nM, the EC50 (HT29 cell line; [9]) was 1.9 nM and the EC50 (HT29 cell line; [10]) was 1.8 nM. For the same molecule, the EC50 (NCI-H460 cell line; in the absence of Compound 1) was 6.5 nM, the EC50 (NCI-H460 cell line; [9]) was 2.9 nM and the EC50 (NCI-H460 cell line; [10]) was 2.3 nM.

In the case of N.N.O=C([O-])C1(C(=O)[O-])CCC1.[Pt+2] [Carboplatin, carboplatin], the “Combination activity 5 μM Compound 1 (cAUC % reduction)” value [1] is reported as 73%, the “Combination activity 20 μM Compound 1 (cAUC % reduction)” value [1] is reported as 80% and the “Combination activity 5 μM Compound 1 (cAUC % reduction)” value [7] is reported as 5%. For the same molecule, the “Combination activity 5 μM Compound 1 (cAUC % reduction)” value ([7]; listed as carboplatin) was 50%, the “Combination activity 20 μM Compound 1 (cAUC % reduction)” value [7, 12] was 19% and the “Combination activity 5 μM Compound 1 (cAUC % reduction)” value [3] was 27%. The “Combination activity 20 μM Compound 1 (cAUC % reduction)” value [3] was 3%, the “Combination activity 5 μM Compound 1 (cAUC % reduction)” value [8, 11] was 7% and the “Combination activity 20 μM Compound 1 (cAUC % reduction)” value [8, 12] was 14%.
